In patent US20110065739A1, “NOVEL ISOXAZOLE DRIVATIVE” (priority 2008, published 2011):
Structures can show the parent of a compound that is named as a salt.

Target: T1, human GPR120 (Homo sapiens, UniProt Q5NUL3)
T1 construct: expressed in transfected cells
T1 sequence (Q5NUL3 1-361): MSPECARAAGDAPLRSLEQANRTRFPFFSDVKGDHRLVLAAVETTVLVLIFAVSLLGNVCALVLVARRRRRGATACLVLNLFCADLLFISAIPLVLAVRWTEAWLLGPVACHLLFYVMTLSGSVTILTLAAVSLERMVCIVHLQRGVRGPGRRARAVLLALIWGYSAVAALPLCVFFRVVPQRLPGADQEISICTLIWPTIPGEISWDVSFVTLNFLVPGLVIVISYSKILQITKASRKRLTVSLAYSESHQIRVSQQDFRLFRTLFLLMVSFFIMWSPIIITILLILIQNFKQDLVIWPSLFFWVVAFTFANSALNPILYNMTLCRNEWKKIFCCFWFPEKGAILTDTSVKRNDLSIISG
Assay: Measurement of intracellular calcium concentration (FLIPR), GPR120 agonist action
Assay type: cell-based
Conditions: 10 μmol/l test compound, human GPR120 expression CHO cells, Fluo-4 AM; for activation at 10 µM: read-out: Agonistic activity at 10 μmol/l (%)
Protocol: Using Lipofectamine 2000 (Invitrogen), cDNA of GPR120 receptor was transfected into CHO/NFAT-BLA cells, and drug-resistant cells were isolated to obtain GPR120 stable expression strains. The GPR120-expressed CHO cells were cultured in DMEM/F12 medium containing 10% fetal bovine serum, 100 units/ml penicillin, 0.1 mg/ml streptomycin sulfate, 250 μg/ml Zeocin, 500 μg/mL Geneticin and 15 mM HEPES. On the day before the measurement day, 4 μM Fluo-4 AM (fluorescence calcium indicator reagent) was incubated to be introduced into the human GPR120 expression CHO cells plated at 20000 cells per well of a 96-well black plate (ViewPlate; Packard) in the presence of 2.5 mM probenecid in a CO2 incubator for 1 hour. To the cells was added the test compound diluted with HBSS solution containing 20 mM HEPES and 2.5 mM probenecid. Variations in the intracellular calcium concentration were measured by Fluorescence Imaging Plate Reader (FLIPR; Molecular Devices) to examine the agonist action, and EC50 values were calculated.

Compound	activation at 10 µM [%]	Agonistic activity at 10 μmol/l (%)
CC(C)Oc1cccc(C(=O)COc2ccc(-c3cc(O)no3)cc2)c1 [Example 42, 2-[4-(3-hydroxyisoxazole-5-yl)phenoxy]-1-(3-isopropoxyphenyl)ethanone]	98	–
CCOc1cccc(CC(C)Oc2ccc(-c3cc(O)no3)cn2)c1 (stereo not drawn) [Example 43, 2-[2-(3-ethoxyphenyl)-1-methylethoxy]-5-(3-hydroxyisoxazole-5-yl)pyridinium Trifluoroacetate]	94	–
CC(C)Oc1cccc(C(C)(C)COc2ccc(-c3cc(O)no3)cn2)c1.O=C(O)C(F)(F)F [Example 44]	–	99
CC(Cc1cccc(N(C)C)c1)Oc1ccc(-c2cc(O)no2)cc1 (stereo not drawn) [Example 45, 3-{2-[4-(3-hydroxyisoxazol-5-yl)phenoxy]propyl}-N,N-dimethylaniline Hydrochloride]	85	–
CC(C)Oc1cccc(C(=O)C(C)Oc2ccc(-c3cc(O)no3)cc2)c1 (stereo not drawn) [Example 46, 2-[4-(3-hydroxyisoxazol-5-yl)phenoxy]-1-(3-isopropoxyphenyl)propan-1-one]	91	–
CC(C)Oc1cccc(C(C)OCc2ccc(-c3cc(O)no3)cc2)c1 (stereo not drawn) [Example 47, 5-(4-{[1-(3-isopropoxyphenyl)ethoxy]methyl}phenyl)isoxazol-3-ol]	92	–
CC(C)Oc1cccc(N(C)CCc2ccc(-c3cc(O)no3)cc2)c1 [Example 48, N-{2-[4-(3-hydroxyisoxazol-5-yl)phenyl]ethyl}-3-isopropoxy-N-methylaniline Trifluoroacetate]	92	–
CC(C)Oc1cccc(CN(C)C(C)c2ccc(-c3cc(O)no3)cc2)c1 (stereo not drawn) [Example 49, 1-[4-(3-hydroxyisoxazol-5-yl)phenyl]-N-(3-isopropoxybenzyl)-N-methylethanamine Trifluoroacetate]	84	–
CC(C)Oc1cccc(C(C)SCc2ccc(-c3cc(O)no3)cc2)c1 (stereo not drawn) [Example 50, 5-[4-({[1-(3-isopropoxyphenyl)ethyl]thio}methyl)phenyl]isoxazol-3-ol]	80	–
CC(C)Oc1cccc(OC(C)Cc2ccc(-c3cc(O)no3)cc2)c1 (stereo not drawn) [Example 52, 5-{4-[2-(3-isopropoxyphenoxy)propyl]phenyl}isoxazol-3-ol]	96	–
CC(C)Cc1cccc(CC(C)Oc2ccc(-c3cc(O)no3)cc2)c1 (stereo not drawn) [Example 53, 5-{4-[2-(3-isobutylphenyl)-1-methylethoxy]phenyl}isoxazol-3-01]	–	100
CC(C)Oc1cccc(CC(C)Oc2ccc(-c3cc(O)no3)cc2F)c1 (stereo not drawn) [Example 54, 5-{3-fluoro-4-[2-(3-isopropoxyphenyl)-1-methylethoxy]phenyl}isoxazol-3-ol]	100	–
CC(C)Oc1cccc(SC(C)Cc2ccc(-c3cc(O)no3)cc2)c1 (stereo not drawn) [Example 55, 5-(4-{2-[(3-isopropoxyphenyl)thio]propyl}phenyl)isoxazol-3-ol]	101	–
N-[4-(3-hydroxyisoxazol-5-yl)benzyl]-3-isopropoxy-N-methylaniline [Example 65]	–	76
N-[4-(3-hydroxyisoxazol-5-yl)benzyl]-3-isopropoxy-N-methylbenzenesulfonamide [Example 51]	–	77

Results, then the compound that gave them:

activation at 10 µM [%]	Agonistic activity at 10 μmol/l (%)	Compound
96	–	CCOc1cccc(CC(C)Oc2ccc(-c3cc(O)no3)cc2F)c1 (stereo not drawn) [Example 56, 5-{4-[2-(3-ethoxyphenyl)-1-methylethoxy]-3-fluorophenyl}isoxazol-3-ol]
98	–	CC(C)Oc1cccc(C(F)(F)COc2ccc(-c3cc(O)no3)c(F)c2)c1 [Example 57, 5-{4-[2,2-difluoro-2-(3-isopropoxyphenyl)ethoxy]-2-fluorophenyl}isoxazol-3-ol]
91	–	CC(C)Oc1cccc(N(C)C(C)Cc2ccc(-c3cc(O)no3)cc2)c1 (stereo not drawn) [Example 58, 5-(4-{2-[(3-isopropoxyphenyl)(methyl)amino]propyl}phenyl)isoxazol-3-ol]
96	–	CC(Cc1cccc(OC(C)C)c1)Nc1ccc(-c2cc(O)no2)cc1 (stereo not drawn) [Example 59, 4-(3-hydroxyisoxazol-5-yl)-N-[2-(3-isopropoxyphenyl)-1-methylethyl]aniline Trifluoroacetate]
65	–	CC(C)Oc1cccc(CCN(C)c2ccc(-c3cc(O)no3)cc2)c1 [Example 60, 4-(3-hydroxyisoxazol-5-yl)-N-[2-(3-isopropoxyphenyl)ethyl]-N-methylaniline Trifluoroacetate]
79	–	COc1cc(-c2cc(O)no2)ccc1OC(C)Cc1cccc(OC(C)C)c1 (stereo not drawn) [Example 61, 5-{4-[2-(3-isopropoxyphenyl)-1-methylethoxy]-3-methoxyphenyl}isoxazol-3-ol]
–	99	CC(C)Oc1cc(CC(C)Oc2ccc(-c3cc(O)no3)cc2)ccn1.Cl (stereo not drawn) [Example 62]
106	–	CC(C)Oc1cc(C[C@H](C)Oc2ccc(-c3cc(O)no3)cc2)ccn1 [Example 63, 5-(4-(((1S)-1-methyl-2-(2-((1-methylethyl)oxy)pyridin-4-yl)ethyl)oxy)phenyl)isoxazol-3-ol Sodium Salt]
104	–	CC(C)Oc1cc(C[C@@H](C)Oc2ccc(-c3cc(O)no3)cc2)ccn1 [Example 64, 5-(4-(((1R)-1-methyl-2-(2-((1-methylethyl)oxy)pyridin-4-yl)ethyl)oxy)phenyl)isoxazol-3-ol Sodium Salt]
